Laboratory results reported in patent publication US10544440B2, “Multiple protease deficient filamentous fungal cells and methods of use thereof” (Glykos Finland OY, priority 2013, dated 2020).
Square brackets hold non-standard residues; d marks the D form. Peptide text beside a SMILES is read from it. * marks the point of attachment. Sta = CC(C)C[C@H](N)[C@@H](O)CC(=O)O; Isovaleryl = CC(C)CC(=O)*

B1: SBTI: soybean trypsin inhibitor, protease inhibitor (protein, UniProt P01070 25-205, looked up)
Trypsin inhibitor A: DFVLDNEGNPLENGGTYYILSDITAFGGIRAAPTGNERCPLTVVQSRNELDKGIGTIISSPYRIRFIAEGHPLSLKFDSFAVIMLCVGIPTEWSVVEDLPEGPAVKIGENKDAMDGWFRLERVSDDEFNNYKLVFCPQQAEDDKCGDIGISIDHDDGTRRLVVSKNKPLVVQFQKLDKESL

Tests used:
[1] = tested on: M1200 strain; assay: Inhibitor studies on FGF21 production strain M1200 in 24 well culture; format: cell-based, Trichoderma reesei; conditions: M1200 24 well culture, inhibitors 10 μM, SBTI 0.1 mg/ml; for FGF21 expression, lower band / FGF21 expression, total product / FGF21 expression, upper band: day 4 immunoblot
Text: Chymostatin and SBTI are known to inhibit SLP2 and SLP7 subtilisin proteases that are still expressed in the M1200 strain. Pepstatin inhibits aspartic proteases such as PEP8, PEP11, PEP12 which are known to be secreted into the supernatant. 1,10-phenathroline targets mainly zinc metalloproteases which are secreted by Trichoderma. The M1200 strain was cultivated in 24 well format in TrMM with 10 g/L yeast extract, 20 g/L cellobiose, 10 g/L sorbose, PIPPS buffered at pH 4.5. Chymostatin, phenathroline, and pepstatin were used at a final concentration of 10 μM and SBTI was used at 0.1 mg/ml. Each treatment was done in duplicate wells and the untreated control was cultured in 4 wells.
The cultures were started by adding 1×10^7 spores into 50 ml of culture medium and adding 3 ml of culture medium plus spores to each well (6×10^5 spores/well). 100 μl of each culture supernatant was collected on days 4, 5, and 6. The mycelium was spun down to remove only the supernatant. Orange LSB was added and the samples were heated for 5 minutes. 2 μl of the supernatant+LSB was loaded per well into 4-20% Criterion TGX gel. The gel was run and proteins were transferred to nitrocellulose membranes.
The expressed FGF21 was detected by immunoblotting as above. A commercially purchased N-terminal antibody rabbit polyclonal from Abcam (#ab66564) and C-terminal rabbit polyclonal antibody from Abcam (#ab137715) were used in some cases.

[2] = tested on: M393 strain; assay: FGF21 production by M393 in 24 well cultures treated with protease inhibitors; format: cell-based, Trichoderma reesei; conditions: M393 24 well culture, 10 μM pepstatin A added, day 6
Procedure: The M393 strain was grown with and without protease inhibitors pepstatin A, chymostatin, or soybean trypsin inhibitor. Independent wells were chosen for control wells where no inhibitors were added. This strain was grown in 3 ml of TrMM with diammonium citrate without ammonium sulfate, 100 mM PIPPS, 20 g/L spent grain extract, 40 g/L lactose adjusted to pH 4.5. The 24 well plates were shaken at 800 rpm at 85% humidity. The plate was covered with an air permeable membrane and the cultures were grown for 6 days.
Inhibitors were added first on day 3 and then added daily until day 6. 200 μl samples were taken from the culture wells beginning on day 3. The mycelium was spun down for 5 minutes at 13 k and the supernatant collected. From the culture supernatant 5 μl plus LSB was loaded in a 4-20% SDS PAGE gel and immunoblotting made on nitrocellulose with rabbit anti-FGF21 (2 μg/ml) and goat anti-rabbit IgG AP conjugated secondary antibody diluted 1:10,000. FGF21 standard were included on the blot for quantification.

Molecule	FGF21 expression, lower band [1] [Fluorescent units]	FGF21 expression, total product [1] [Fluorescent units]	FGF21 expression, upper band [1] [Fluorescent units]	effect of inhibitor treatment on FGF21 forms (immunoblot) [1]	FGF21 production [2]
c1cnc2c(c1)ccc1cccnc12 [1,10-phenathroline]	68800	69574	774	only improved the expression level of the 10 kD form	
CC(C)C[C@H](NC(=O)[C@@H](NC(=O)N[C@@H](Cc1ccccc1)C(=O)O)[C@@H]1CCN=C(N)N1)C(=O)N[C@H](C=O)Cc1ccccc1 [chymostatin]	19500	53700	34200	improved the stability of the protein allowing a 17 kD major product	
CC(C)CC(=O)N[C@H](C(=O)N[C@H](C(=O)N[C@@H](CC(C)C)[C@@H](O)CC(=O)N[C@@H](C)C(=O)N[C@@H](CC(C)C)[C@@H](O)CC(=O)O)C(C)C)C(C)C [pepstatin, pepstatin A] (Isovaleryl-VV[Sta]A[Sta]-OH)	51050	52660	1610	only improved the expression level of the 10 kD form	up to 160 mg/L
B1	37050	50850	13800	only improved the expression level of the 10 kD form	
